Laboratory results published in publication PMC5655388, “Nicotinamide-based diamides derivatives as potential cytotoxic agents: synthesis and biological evaluation” (Chemistry Central Journal, 2017).
≈ marks a conversion by molar mass, not a printed value.

Columns and labels:
[1] = tested on: NCI-H1975 (Human lung cancer cell line); test: MTT in vitro cytotoxicity assay, NCI-H1975; type: cell-based; details: for IC50: Homo sapiens, NCI-H1975 cells, MTT assay, mean ± SD; for Cytotoxic (inhibitory) activity at single concentration, NCI-H1975: 40 µg/mL, preliminary screen (Fig. 4), result in words
Description: (§1) All newly prepared nicotinamide-based diamides derivatives 4a–k and several similar diamides 4l–o were evaluated for their in vitro cytotoxic effects against NCI-H460 (Human large cell lung cancer cell line), A549 (Human lung cancer cell line), NCI-H1975 (Human lung cancer cell line), HL-7702 (Human normal liver cells), and MDCK (Madin-Darby canine kidney cells) cell lines by the modified MTT (3-(4,5-dimethylthiazol-2-yl)-2,5-diphenyl tetrazolium bromide) assay using 5-FU (5-Fluorouracil) as a positive control.
(§2) The in vitro cytotoxicity of the synthesized compounds against different human lung cancer cell lines (NCI-H460, A549, NCI-H1975) and normal cells (HL-7702 and MDCK) were measured with the 3-(4,5-dimethylthiazol-2-yl)-2,5-diphenyl tetrazolium bromide (MTT) assay. All the data of the experiment were analyzed with SPSS software, and the 50% inhibitory concentrations (IC50) of each compound for the different cell lines were determined. A control was run for each test, and all assays were performed in triplicate on three independent experiments, and measurement data were expressed as the mean ± SD.

[2] = tested on: A549 (Human lung cancer cell line); test: MTT in vitro cytotoxicity assay, A549; type: cell-based; details: for IC50: Homo sapiens, A549 cells, MTT assay, mean ± SD; for Cytotoxic (inhibitory) activity at single concentration, A549: 40 µg/mL, preliminary screen (Fig. 4), result in words
Description: as §1, §2

[3] = tested on: NCI-H460 (Human large cell lung cancer cell line); test: MTT in vitro cytotoxicity assay, NCI-H460; type: cell-based; details: for IC50: Homo sapiens, NCI-H460 cells, MTT assay, mean ± SD; for Cytotoxic (inhibitory) activity at single concentration, NCI-H460: 40 µg/mL, preliminary screen (Fig. 4), result in words
Description: as §1, §2

[4] = MTT in vitro cytotoxicity assay, MDCK normal cells; type: cell-based, canine; details: dog, MDCK normal kidney cells, mean ± SD
Description: as §1, §2

[5] = MTT in vitro cytotoxicity assay, HL-7702 normal cells; type: cell-based; details: human, HL-7702 normal liver cells, mean ± SD
Description: as §1, §2

NC(=O)c1cccnc1NC(=O)c1ccccc1Nc1cccc(C(F)(F)F)c1 [4a, 2-(2-((3-(Trifluoromethyl)phenyl)amino)benzamido)nicotinamide]
IC50 [1]: > 40 µg/mL
IC50 [2]: > 40 µg/mL
IC50 [3]: > 40 µg/mL
IC50 [4]: > 40 µg/mL
IC50 [5]: > 40 µg/mL

Cc1cc(Cl)cc(C(N)=O)c1NC(=O)c1ccccc1Nc1cccc(C(F)(F)F)c1 [4l, 5-Chloro-3-methyl-2-(2-((3-(trifluoromethyl)phenyl)amino)benzamido)benzamide]
IC50 [1]: > 40 µg/mL
Cytotoxic (inhibitory) activity at single concentration, A549 [2]: selective cytotoxicity
IC50 [2]: > 40 µg/mL
IC50 [3]: > 40 µg/mL
IC50 [4]: > 40 µg/mL
IC50 [5]: > 40 µg/mL

NC(=O)c1cc2ccccc2cc1NC(=O)c1cccnc1Nc1cccc(C(F)(F)F)c1 [4j, N-(3-Carbamoylnaphthalen-2-yl)-2-((3-(trifluoromethyl)phenyl)amino)nicotinamide]
IC50 [1]: 25.2 ± 3.35 µg/mL (≈ 55.9 µM)
IC50 [2]: 24.8 ± 3 µg/mL (≈ 55 µM)
IC50 [3]: 38.4 ± 3.95 µg/mL (≈ 85.3 µM)
IC50 [4]: 14.3 ± 0.66 µg/mL (≈ 31.7 µM)
IC50 [5]: 18.1 ± 1.63 µg/mL (≈ 40.2 µM)

CC(=O)CNC(=O)c1cccnc1NC(=O)c1ccccc1Nc1cccc(C(F)(F)F)c1 [4d, N-(2-Oxopropyl)-2-(2-((3-(trifluoromethyl)phenyl)amino)benzamido)nicotinamide]
Cytotoxic (inhibitory) activity at single concentration, NCI-H1975 [1]: significant inhibitory activities
IC50 [1]: 12.8 ± 1.59 µg/mL (≈ 28.1 µM)
Cytotoxic (inhibitory) activity at single concentration, A549 [2]: significant inhibitory activities
IC50 [2]: 13.1 ± 2.45 µg/mL (≈ 28.7 µM)
Cytotoxic (inhibitory) activity at single concentration, NCI-H460 [3]: significant inhibitory activities
IC50 [3]: 4.07 ± 1.3 µg/mL (≈ 8.92 µM)
IC50 [4]: 13.4 ± 0.29 µg/mL (≈ 29.5 µM)
IC50 [5]: 26.9 ± 0.95 µg/mL (≈ 58.9 µM)

NC(=O)c1cccnc1NC(=O)c1cccnc1Nc1cccc(C(F)(F)F)c1 [4g, N-(3-Carbamoylpyridin-2-yl)-2-((3-(trifluoromethyl)phenyl)amino)nicotinamide]
Cytotoxic (inhibitory) activity at single concentration, NCI-H1975 [1]: significant inhibitory activities
IC50 [1]: 10.8 ± 2.22 µg/mL (≈ 27 µM)
Cytotoxic (inhibitory) activity at single concentration, A549 [2]: significant inhibitory activities
IC50 [2]: 20.1 ± 0.48 µg/mL (≈ 50.1 µM)
Cytotoxic (inhibitory) activity at single concentration, NCI-H460 [3]: significant inhibitory activities
IC50 [3]: 9.17 ± 2.02 µg/mL (≈ 22.8 µM)
IC50 [4]: 13 ± 1.27 µg/mL (≈ 32.5 µM)
IC50 [5]: 9.86 ± 0.34 µg/mL (≈ 24.6 µM)

CNC(=O)c1cc2ccccc2cc1NC(=O)c1ccccc1Nc1cccc(C(F)(F)F)c1 [4o, N-Methyl-3-(2-((3-(trifluoromethyl)phenyl)amino)benzamido)-2-naphthamide]
IC50 [1]: > 40 µg/mL
IC50 [2]: > 40 µg/mL
IC50 [3]: > 40 µg/mL
IC50 [4]: > 40 µg/mL
IC50 [5]: > 40 µg/mL

CNC(=O)c1cc(Cl)cc(C)c1NC(=O)c1ccccc1Nc1cccc(C(F)(F)F)c1 [4m, 5-Chloro-N,3-dimethyl-2-(2-((3-(trifluoromethyl)phenyl)amino)benzamido)benzamide]
Cytotoxic (inhibitory) activity at single concentration, NCI-H1975 [1]: good inhibition activities
IC50 [1]: 10.8 ± 1.02 µg/mL (≈ 23.4 µM)
Cytotoxic (inhibitory) activity at single concentration, A549 [2]: good inhibition activities
IC50 [2]: 6.77 ± 0.86 µg/mL (≈ 14.7 µM)
Cytotoxic (inhibitory) activity at single concentration, NCI-H460 [3]: good inhibition activities
IC50 [3]: 6.85 ± 0.23 µg/mL (≈ 14.8 µM)
IC50 [4]: 21.2 ± 3.59 µg/mL (≈ 46 µM)
IC50 [5]: 21.4 ± 1.79 µg/mL (≈ 46.4 µM)

Cc1cc(Cl)cc(C(N)=O)c1NC(=O)c1cccnc1Nc1cccc(C(F)(F)F)c1 [4e, N-(2-Carbamoyl-4-chloro-6-methylphenyl)-2-((3-(trifluoromethyl)phenyl)amino)nicotinamide]
IC50 [1]: > 40 µg/mL
Cytotoxic (inhibitory) activity at single concentration, A549 [2]: selective cytotoxicity
IC50 [2]: > 40 µg/mL
IC50 [3]: > 40 µg/mL
IC50 [4]: > 40 µg/mL
IC50 [5]: > 40 µg/mL

CNC(=O)c1cccnc1NC(=O)c1ccccc1Nc1cccc(C(F)(F)F)c1 [4b, N-Methyl-2-(2-((3-(trifluoromethyl)phenyl)amino)benzamido)nicotinamide]
IC50 [1]: > 40 µg/mL
IC50 [2]: > 40 µg/mL
IC50 [3]: 36.7 ± 2.8 µg/mL (≈ 88.5 µM)
IC50 [4]: > 40 µg/mL
IC50 [5]: > 40 µg/mL

NC(=O)c1cc2ccccc2cc1NC(=O)c1ccccc1Nc1cccc(C(F)(F)F)c1 [4n, 3-(2-((3-(Trifluoromethyl)phenyl)amino)benzamido)-2-naphthamide]
IC50 [1]: > 40 µg/mL
IC50 [2]: > 40 µg/mL
IC50 [3]: > 40 µg/mL
IC50 [4]: 14.44 ± 0.01 µg/mL (≈ 32.1 µM)
IC50 [5]: > 40 µg/mL

O=c1[nH]cc(F)c(=O)[nH]1 [5-FU, 5-Fluorouracil, reference compound]
IC50 [1]: 24.8 ± 5.8 µg/mL (≈ 190 µM)
IC50 [2]: 37.5 ± 3.25 µg/mL (≈ 288 µM)
IC50 [3]: 8.02 ± 2.35 µg/mL (≈ 61.7 µM)
IC50 [4]: 8.65 ± 0.81 µg/mL (≈ 66.5 µM)
IC50 [5]: 11.3 ± 1.67 µg/mL (≈ 87.3 µM)

CC(O)CNC(=O)c1cccnc1NC(=O)c1ccccc1Nc1cccc(C(F)(F)F)c1 (centres unmarked) [4c, N-(2-Hydroxypropyl)-2-(2-((3-(trifluoromethyl)phenyl)amino)benzamido)nicotinamide]
Cytotoxic (inhibitory) activity at single concentration, NCI-H1975 [1]: significant inhibitory activities
IC50 [1]: 27.2 ± 2.76 µg/mL (≈ 59.4 µM)
Cytotoxic (inhibitory) activity at single concentration, A549 [2]: significant inhibitory activities
IC50 [2]: 26.3 ± 3.22 µg/mL (≈ 57.4 µM)
Cytotoxic (inhibitory) activity at single concentration, NCI-H460 [3]: significant inhibitory activities
IC50 [3]: 20.6 ± 1.37 µg/mL (≈ 45 µM)
IC50 [4]: 17 ± 0.84 µg/mL (≈ 37 µM)
IC50 [5]: 19.7 ± 0.45 µg/mL (≈ 43 µM)

CC(O)CNC(=O)c1cccnc1NC(=O)c1cccnc1Nc1cccc(C(F)(F)F)c1 (centres unmarked) [4i, N-(2-Hydroxypropyl)-2-(2-((3-(trifluoromethyl)phenyl)amino)nicotinamido)nicotinamide]
Cytotoxic (inhibitory) activity at single concentration, NCI-H1975 [1]: significant inhibitory activities
IC50 [1]: 9.15 ± 1.64 µg/mL (≈ 19.9 µM)
Cytotoxic (inhibitory) activity at single concentration, A549 [2]: significant inhibitory activities
IC50 [2]: 16.5 ± 3.53 µg/mL (≈ 36 µM)
Cytotoxic (inhibitory) activity at single concentration, NCI-H460 [3]: significant inhibitory activities
IC50 [3]: 13.1 ± 4.49 µg/mL (≈ 28.5 µM)
IC50 [4]: 11.62 ± 0.06 µg/mL (≈ 25.3 µM)
IC50 [5]: 14.5 ± 2.19 µg/mL (≈ 31.6 µM)

CNC(=O)c1cc(Cl)cc(C)c1NC(=O)c1cccnc1Nc1cccc(C(F)(F)F)c1 [4f, N-(4-Chloro-2-methyl-6-(methylcarbamoyl)phenyl)-2-((3-(trifluoromethyl)phenyl)amino)nicotinamide]
IC50 [1]: > 40 µg/mL
IC50 [2]: > 40 µg/mL
IC50 [3]: > 40 µg/mL
IC50 [4]: > 40 µg/mL
IC50 [5]: > 40 µg/mL

CNC(=O)c1cccnc1NC(=O)c1cccnc1Nc1cccc(C(F)(F)F)c1 [4h, N-Methyl-2-(2-((3-(trifluoromethyl)phenyl)amino)nicotinamido)nicotinamide]
Cytotoxic (inhibitory) activity at single concentration, NCI-H1975 [1]: significant inhibitory activities
IC50 [1]: 12.4 ± 2.52 µg/mL (≈ 29.9 µM)
Cytotoxic (inhibitory) activity at single concentration, A549 [2]: significant inhibitory activities
IC50 [2]: 17.2 ± 3.4 µg/mL (≈ 41.4 µM)
Cytotoxic (inhibitory) activity at single concentration, NCI-H460 [3]: significant inhibitory activities
IC50 [3]: 9.31 ± 2.66 µg/mL (≈ 22.4 µM)
IC50 [4]: 11.1 ± 0.24 µg/mL (≈ 26.6 µM)
IC50 [5]: 11.6 ± 2.08 µg/mL (≈ 28 µM)

CNC(=O)c1cc2ccccc2cc1NC(=O)c1cccnc1Nc1cccc(C(F)(F)F)c1 [4k, N-(3-(Methylcarbamoyl)naphthalen-2-yl)-2-((3-(trifluoromethyl)phenyl)amino)nicotinamide]
IC50 [1]: > 40 µg/mL
Cytotoxic (inhibitory) activity at single concentration, A549 [2]: selective cytotoxicity
IC50 [2]: 35.3 ± 2.19 µg/mL (≈ 76 µM)
IC50 [3]: > 40 µg/mL
IC50 [4]: > 40 µg/mL
IC50 [5]: > 40 µg/mL
